In patent US20230136297A1, “Methods Of Treating Fabry Disease In Patients Having A Mutation In The GLA Gene” (Amicus Therapeutics, Inc., priority 2020, published 2023):
Substitutions are numbered along the chain they refer to.

Assays:
Experiment in all cases: α-Gal A activity in lysates of transfected HEK-293 cells ± migalastat (HEK assay)
Assay type in all cases: cell-based
[1] = target: T1, α-Gal A mutant form M290V (Homo sapiens, UniProt P06280, M290V)
T1 construct: expressed in transfected cells; host or cells: HEK-293
T1 sequence (P06280 32-429 M290V): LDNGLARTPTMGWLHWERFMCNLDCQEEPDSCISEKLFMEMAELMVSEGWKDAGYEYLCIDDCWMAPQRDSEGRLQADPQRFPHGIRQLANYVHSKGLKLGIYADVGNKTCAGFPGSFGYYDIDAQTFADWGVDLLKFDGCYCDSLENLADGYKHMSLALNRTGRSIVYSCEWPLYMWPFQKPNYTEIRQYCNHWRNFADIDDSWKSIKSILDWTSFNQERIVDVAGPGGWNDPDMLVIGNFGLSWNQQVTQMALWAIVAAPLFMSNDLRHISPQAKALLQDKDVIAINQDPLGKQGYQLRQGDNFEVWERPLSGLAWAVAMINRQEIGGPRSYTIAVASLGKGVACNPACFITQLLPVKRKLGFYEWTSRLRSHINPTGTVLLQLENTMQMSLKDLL
Outline: (§1)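 Activity is reported as nmol of free 4-MU released per mg protein per hour (nmol/mg/hr).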

[2] = target: T2, α-Gal A mutant form W209R (Homo sapiens, UniProt P06280, W209R)
T2 construct: expressed in transfected cells; host or cells: HEK-293
T2 sequence (P06280 32-429 W209R): T1 sequence (P06280 32-429 M290V) with W178R, V259M
Outline: as §1

α-Gal A mutant form R38S = target: T3, α-Gal A mutant form R38S (Homo sapiens, UniProt P06280, R38S)
T3 construct: expressed in transfected cells; host or cells: HEK-293
T3 sequence (P06280 32-429 R38S): T1 sequence (P06280 32-429 M290V) with R7S, V259M
Outline: as §1

[3] = target: T4, α-Gal A mutant form F159C (Homo sapiens, UniProt P06280, F159C)
T4 construct: expressed in transfected cells; host or cells: HEK-293
T4 sequence (P06280 32-429 F159C): T1 sequence (P06280 32-429 M290V) with F128C, V259M
Outline: as §1

[4] = target: T5, α-Gal A mutant form A143V (Homo sapiens, UniProt P06280, A143V)
T5 construct: expressed in transfected cells; host or cells: HEK-293
T5 sequence (P06280 32-429 A143V): T1 sequence (P06280 32-429 M290V) with A112V, V259M
Outline: as §1

[5] = 10 μM migalastat minus baseline
[6] = HEK-293 lysates, 10 μM migalastat 5 days, mean ± SEM

Absolute increase (% WT) [1, 5]: 61.5 % WT
Relative increase ([1]; 10 μM migalastat ÷ baseline): 1.94
10 μM migalastat α-Gal A activity [1, 6]: 45804 ± 2927 nmol/mg/h
10 μM migalastat α-Gal A activity (% WT) [1, 6]: 128.1 ± 8.2 % WT
Absolute increase (% WT) [2, 5]: 17.5 % WT
Relative increase ([2]; 10 μM migalastat ÷ baseline): 1.25
10 μM migalastat α-Gal A activity [2, 6]: 28729 ± 1293 nmol/mg/h
10 μM migalastat α-Gal A activity (% WT) [2, 6]: 81.1 ± 4.6 % WT
Absolute increase (% WT) (α-Gal A mutant form R38S; [5]): 26.6 % WT
Relative increase (α-Gal A mutant form R38S; 10 μM migalastat ÷ baseline): 1.29
10 μM migalastat α-Gal A activity (α-Gal A mutant form R38S; [6]): 30928 ± 1484 nmol/mg/h
10 μM migalastat α-Gal A activity (% WT) (α-Gal A mutant form R38S; [6]): 100 ± 9.3 % WT
Absolute increase (% WT) [3, 5]: 15.8 % WT
Relative increase ([3]; 10 μM migalastat ÷ baseline): 2.07
10 μM migalastat α-Gal A activity [3, 6]: 9238 ± 513 nmol/mg/h
10 μM migalastat α-Gal A activity (% WT) [3, 6]: 29.6 ± 2.3 % WT
Absolute increase (% WT) [4, 5]: 31.7 % WT
Relative increase ([4]; 10 μM migalastat ÷ baseline): 3.24
10 μM migalastat α-Gal A activity [4, 6]: 13309 ± 921 nmol/mg/h
10 μM migalastat α-Gal A activity (% WT) [4, 6]: 45.5 ± 3.2 % WT
Structure (SMILES): OC[C@H]1NC[C@H](O)[C@@H](O)[C@H]1O [migalastat, (2R,3S,4R,5S)-2-(hydroxymethyl) piperdine-3,4,5-triol]
